Data taken from patent publication USRE47689E1, “Compounds for treating spinal muscular atrophy” (PTC Therapeutics, Inc., priority 2011, dated 2019).
Where two headings read alike, the source gives them in different places.

Assays:
[1] = system: Smn protein; assay: Smn protein assay in cultured cells (SMN HTRF); format: cell-based, human; conditions: 48 hours; for EC1.5x (concentration giving 1.5-fold Smn protein increase): SMA Type 1 patient fibroblast cells (GM03813), 7-point concentration curve, SMN HTRF, concentration producing 1.5 times Smn protein vs DMSO vehicle control, read-out: EC1.5x for Smn protein expression; for maximum fold (Fold) increase of Smn protein: SMA patient fibroblast cells, 7-point concentration data, fold increase relative to vehicle control (SMN HTRF)
Summary of the method: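 Lysates in RIPA with protease inhibitors are incubated overnight at room temperature with HTRF anti-SMN antibodies. EC1.5x is derived from fold increase in ΔF over vehicle.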

[2] = system: SMN2 minigene (full length SMN2 minigene mRNA containing SMN2 exon 7); assay: SMN2 minigene mRNA splicing RT-qPCR assay in cultured cells; format: cell-based, human; conditions: Homo sapiens, HEK293-H, read-out: EC1.5x for production of full length SMN2 mRNA
Summary of the method: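 HEK293H cells stably carrying the SMN2-A minigene treated 24 h at 37° C with compound (DMSO, 200× stock), then lysed. Multiplex RT-qPCR (SMN primers 0.4 μM final; 40 cycles) measures full-length exon 7-containing minigene mRNA, normalized to GAPDH and to vehicle; EC1.5x derived and binned by stars.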

[3] = HEK293H cells stably transfected with SMN2-A minigene, 24 hours, 7-point concentration curve, 1.5-fold relative to vehicle-treated cells

melting point [°C]	Compound	EC1.5x (concentration giving 1.5-fold Smn protein increase) [1] [nM]	maximum fold (Fold) increase of Smn protein [1]	EC (1.5-fold) [2, 3] [µM]	EC (1.5-fold) ([2]; 24 h) [µM]
127 to 131	Cc1cn2cc(-c3cc4ccc(N5CCN(C)CC5)cc4oc3=O)cc2c(C)n1 [Compound 644, 3-(1,3-dimethylpyrrolo[1,2-a]pyrazin-7-yl)-7-(4-methylpiperazin-1-yl)-2H-chromen-2-one]	< 300	***** (fold increase >1.65)	< 0.1	–
250 to 256	Cc1cn2cc(-c3cc4ccc(NC5CNC5)cc4oc3=O)nc2c(C)n1 [Compound 619, 7-(azetidin-3-ylamino)-3-(6,8-dimethylimidazo[1,2-a]pyrazin-2-yl)-2H-chromen-2-one]	< 300	**** (fold increase between >1.5 and ≤1.65)	< 0.1	–
218 to 223	CCN1CCC(c2ccc3cc(-c4cn5cc(C)nc(C)c5n4)c(=O)oc3c2)CC1 [Compound 749, 3-(6,8-dimethylimidazo[1,2-a]pyrazin-2-yl)-7-(1-ethylpiperidin-4-yl)-2H-chromen-2-one]	< 300	***** (fold increase >1.65)	< 0.1	–
280 to 282	Cc1cn2cc(-c3cc4ccc(N5CCN(C)[C@H](C)C5)cc4oc3=O)cnc2n1 [Compound 660, 7-[(3R)-3,4-dimethylpiperazin-1-yl]-3-(2-methylimidazo[1,2-a]pyrimidin-6-yl)-2H-chromen-2-one]	300 to 1000	***** (fold increase >1.65)	< 0.1	–
175 to 177	CCN1CCC(Oc2ccc3cc(-c4cn5cc(C)nc(C)c5n4)c(=O)oc3c2)CC1 [Compound 898, 3-(6,8-dimethylimidazo[1,2-a]pyrazin-2-yl)-7-[(1-ethylpiperidin-4-yl)oxy]-2H-chromen-2-one]	< 300	***** (fold increase >1.65)	< 0.1	–
175 to 178	Cc1nccn2cc(-c3cc4ccc(N5CCN6CCC[C@H]6C5)cc4oc3=O)cc12 [Compound 642, 7-[(8aS)-hexahydropyrrolo[1,2-a]pyrazin-2(1H)-yl]-3-(1-methylpyrrolo[1,2-a]pyrazin-7-yl)-2H-chromen-2-one]	–	** (fold increase between >1.2 and ≤1.35)	< 0.1	–
207 to 217	Cc1cn2cc(-c3cc4ccc(N5C[C@H]6CCCN(CCO)[C@H]6C5)cc4oc3=O)nc2c(C)n1 [Compound 785, 3-(6,8-dimethylimidazo[1,2-a]pyrazin-2-yl)-7-[(4aR,7aR)-1-(2-hydroxyethyl)octahydro-6H-pyrrolo[3,4-b]pyridin-6-yl]-2H-chromen-2-one]	1000 to 3000	**** (fold increase between >1.5 and ≤1.65)	< 0.1	–
187 to 190	Cc1cn2cc(-c3cc4ccc(OCCN5CCC(O)CC5)cc4oc3=O)nc2c(C)n1 [Compound 957, 3-(6,8-dimethylimidazo[1,2-a]pyrazin-2-yl)-7-[2-(4-hydroxypiperidin-1-yl)ethoxy]-2H-chromen-2-one]	300 to 1000	**** (fold increase between >1.5 and ≤1.65)	< 0.1	–
215 to 218	CN1CCC(c2ccc3cc(-c4ccc5nn(C)cc5c4)c(=O)oc3c2)CC1 [Compound 862, 3-(2-methyl-2H-indazol-5-yl)-7-(1-methylpiperidin-4-yl)-2H-chromen-2-one]	300 to 1000	***** (fold increase >1.65)	< 0.1	–

The remaining lines, values behind:

Compound	melting point [°C]	EC1.5x (concentration giving 1.5-fold Smn protein increase) [1] [nM]	maximum fold (Fold) increase of Smn protein [1]	EC (1.5-fold) [2, 3] [µM]	EC (1.5-fold) ([2]; 24 h) [µM]
O=c1oc2cc(N3CCCNCC3)ccc2cc1-c1cc2ccccn2n1 [Compound 192, 7-(1,4-diazepan-1-yl)-3-(pyrazolo[1,5-a]pyridin-2-yl)-2H-chromen-2-one]	178 to 180	–	** (fold increase between >1.2 and ≤1.35)	0.3 to 1	–
Cc1ccn2cc(-c3cc4ccc(N5CCN[C@H](C)C5)cc4oc3=O)nc2n1 [Compound 228, 3-(7-methylimidazo[1,2-a]pyrimidin-2-yl)-7-[(3R)-3-methylpiperazin-1-yl]-2H-chromen-2-one]	297 to 300	–	** (fold increase between >1.2 and ≤1.35)	0.1 to 0.3	–
CN1CCN(c2ccc3cc(-c4nc5c(Cl)cccc5s4)c(=O)oc3c2)CC1 [Compound 17, 3-(4-chloro-1,3-benzothiazol-2-yl)-7-(4-methylpiperazin-1-yl)-2H-chromen-2-one]	256 to 260	–	** (fold increase between >1.2 and ≤1.35)	0.3 to 1	–
Cc1cn2cc(-c3cc4ccc(N5CCCNCC5)cc4oc3=O)nc2s1 [Compound 233, 7-(1,4-diazepan-1-yl)-3-(2-methylimidazo[2,1-b][1,3]thiazol-6-yl)-2H-chromen-2-one]	188 to 191	–	*** (fold increase between >1.35 and ≤1.5)	0.1 to 0.3	–
CN1CCN(c2ccc3cc(-c4cccnc4C(F)(F)F)c(=O)oc3c2)CC1 [Compound 125, 7-(4-methylpiperazin-1-yl)-3-[2-(trifluoromethyl)pyridin-3-yl]-2H-chromen-2-one]	180 to 182	–	* (maximum fold increase of ≤1.2)	1 to 3	–
Cc1cccc(-c2cc3ccc(N4CCNCC4)cc3oc2=O)c1 [Compound 511, 3-(3-methylphenyl)-7-(piperazin-1-yl)-2H-chromen-2-one]	118 to 120	–	* (maximum fold increase of ≤1.2)	–	1 to 3
CN(C)c1ccc(-c2cc3ccc(N4CCNCC4)cc3oc2=O)cn1 [Compound 547, 3-[6-(dimethylamino)pyridin-3-yl]-7-(piperazin-1-yl)-2H-chromen-2-one]	179 to 181	–	* (maximum fold increase of ≤1.2)	3 to 30	–
CC1(C)CN(c2ccc3cc(-c4cn5cccc(F)c5n4)c(=O)oc3c2)CCN1 [Compound 507, 7-(3,3-dimethylpiperazin-1-yl)-3-(8-fluoroimidazo[1,2-a]pyridin-2-yl)-2H-chromen-2-one]	180 to 182	< 300	**** (fold increase between >1.5 and ≤1.65)	0.1 to 0.3	–
O=c1oc2cc(N3CCNCC3)ccc2cc1-c1nc2cc(F)ccc2[nH]1 [Compound 395, 3-(5-fluoro-1H-benzimidazol-2-yl)-7-(piperazin-1-yl)-2H-chromen-2-one]	295 to 300	–	* (maximum fold increase of ≤1.2)	0.3 to 1	–
Cc1cc(F)c2nc(-c3cc4ccc(N5CCN6CCC5CC6)cc4oc3=O)cn2c1 [Compound 561, 7-(1,4-diazabicyclo[3.2.2]non-4-yl)-3-(8-fluoro-6-methylimidazo[1,2-a]pyridin-2-yl)-2H-chromen-2-one]	287 to 297	< 300	**** (fold increase between >1.5 and ≤1.65)	0.3 to 1	–
Cc1cn2cc(-c3cc4ccc(N(C)C5CCN(C)C5)cc4oc3=O)nc2c(C)n1 (stereo not drawn) [Compound 615, 3-(6,8-dimethylimidazo[1,2-a]pyrazin-2-yl)-7-[methyl(1-methylpyrrolidin-3-yl)amino]-2H-chromen-2-one]	182 to 184	< 300	**** (fold increase between >1.5 and ≤1.65)	< 0.1	–
Cc1cccc2[nH]c(-c3cc4ccc(N5CCNCC5)cc4oc3=O)nc12 [Compound 394, 3-(4-methyl-1H-benzimidazol-2-yl)-7-(piperazin-1-yl)-2H-chromen-2-one]	206 to 211	–	* (maximum fold increase of ≤1.2)	3 to 30	–
O=c1oc2cc(N3CC4CCC3CN4)ccc2cc1-c1cn2cccc(Cl)c2n1 (stereo not drawn) [Compound 527, 3-(8-chloroimidazo[1,2-a]pyridin-2-yl)-7-(2,5-diazabicyclo[2.2.2]oct-2-yl)-2H-chromen-2-one]	178 to 182	< 300	**** (fold increase between >1.5 and ≤1.65)	0.1 to 0.3	–
O=c1oc2cc(N3CCNCC3)ccc2cc1-c1ccncc1F [Compound 126, 3-(3-fluoropyridin-4-yl)-7-(piperazin-1-yl)-2H-chromen-2-one]	202 to 204	–	* (maximum fold increase of ≤1.2)	–	3 to 30
C[C@@H]1CN(c2ccc3cc(-c4cn5cccc(Cl)c5n4)c(=O)oc3c2)CCN1C [Compound 296, 3-(8-chloroimidazo[1,2-a]pyridin-2-yl)-7-[(3R)-3,4-dimethylpiperazin-1-yl]-2H-chromen-2-one]	199 to 202	–	*** (fold increase between >1.35 and ≤1.5)	0.1 to 0.3	–
